Measured values taken from doi:10.1101/2025.03.14.643404, “A Bivalent Molecular Glue Linking Lysine Acetyltransferases to Oncogene-induced Cell Death” (bioRxiv, 2025).

Key:
p300 = target: T1, p300 (Homo sapiens, UniProt P41182+Q09472); assay: p300 immunoprecipitation-mass spectrometry in SUDHL5; assay type: cell-based; settings: SUDHL5, 1 nM, 2 h, vs DMSO
T1 construct: endogenous in cells; host or cells: SUDHL5
Description: 50 million FLAG-BCL6 knock-in SUDHL5 cells were treated compound or DMSO (0.1%) at indicated doses for 2 hours. Cells were lysed in NE10 buffer (20 mM HEPES (pH 7.5), 10 mM KCl, 1 mM MgCl2, 0.1% Triton X-100 (v/v), protease inhibitors (Roche), 15 mM ß-mercaptoethanol), dounced 15 times and pelleted 5 min at 500 g. Nuclei were washed in NE10 buffer and then digested with 250 units benzonase (Millipore) for 30 min rotating at 25°C. Nuclei were resuspended in NE150 buffer (NE10 supplemented with 150mM NaCl) and incubated for 20 min. Lysates were pelleted at 16,000 g for 20 min at 4°C and supernatants were immunoprecipitated by incubating with 2.5 μg FLAG M2 antibody (F1804, Millipore-Sigma) or 2.5 μg p300 (A300–358A, Bethyl Laboratories) antibody with Dynabeads Protein G (Thermo Fisher) overnight at 4°C. The IP fraction was recovered by magnetic separation followed by three washes with NE10 buffer containing 150mM–300mM NaCl but without Triton-X. For mass spectrometry analysis, the IP was then eluted from the beads with Ammonium Hydroxide, pH 11–12; 3% v/v. […]
The reconstituted desalted peptides were then analyzed using a nanoElute 2 UHPLC (Bruker Daltonics, Bremen, Germany) coupled to a timsTOF HT (Bruker Daltonics, Bremen, Germany) via a CaptiveSpray nano-electrospray source. […]

c-MYC mRNA = assay: RT-qPCR of c-MYC transcripts in SUDHL5; assay type: cell-based, human; settings: SUDHL5, 1 nM
Description: Cells were plated at 1M/mL and harvested in TRIsure (Bioline 38033). RNA was extracted using Direct-zol RNA MicroPrep columns (Zymo R2062) treated with DNAseI. cDNA was prepared (Meridian Bioscience BIO-65054) and used for qPCR (Meridian Bioscience BIO-94050) using an AppliedBiosystems QuantStudio 6Pro. Primer sequences were the following:
• c-MYC fwd: […]; • c-MYC rev: […]; • GAPDH fwd: […]; • GAPDH rev: […].

T1 sequence (Q09472 2-2414 limits assumed, other chains not shown): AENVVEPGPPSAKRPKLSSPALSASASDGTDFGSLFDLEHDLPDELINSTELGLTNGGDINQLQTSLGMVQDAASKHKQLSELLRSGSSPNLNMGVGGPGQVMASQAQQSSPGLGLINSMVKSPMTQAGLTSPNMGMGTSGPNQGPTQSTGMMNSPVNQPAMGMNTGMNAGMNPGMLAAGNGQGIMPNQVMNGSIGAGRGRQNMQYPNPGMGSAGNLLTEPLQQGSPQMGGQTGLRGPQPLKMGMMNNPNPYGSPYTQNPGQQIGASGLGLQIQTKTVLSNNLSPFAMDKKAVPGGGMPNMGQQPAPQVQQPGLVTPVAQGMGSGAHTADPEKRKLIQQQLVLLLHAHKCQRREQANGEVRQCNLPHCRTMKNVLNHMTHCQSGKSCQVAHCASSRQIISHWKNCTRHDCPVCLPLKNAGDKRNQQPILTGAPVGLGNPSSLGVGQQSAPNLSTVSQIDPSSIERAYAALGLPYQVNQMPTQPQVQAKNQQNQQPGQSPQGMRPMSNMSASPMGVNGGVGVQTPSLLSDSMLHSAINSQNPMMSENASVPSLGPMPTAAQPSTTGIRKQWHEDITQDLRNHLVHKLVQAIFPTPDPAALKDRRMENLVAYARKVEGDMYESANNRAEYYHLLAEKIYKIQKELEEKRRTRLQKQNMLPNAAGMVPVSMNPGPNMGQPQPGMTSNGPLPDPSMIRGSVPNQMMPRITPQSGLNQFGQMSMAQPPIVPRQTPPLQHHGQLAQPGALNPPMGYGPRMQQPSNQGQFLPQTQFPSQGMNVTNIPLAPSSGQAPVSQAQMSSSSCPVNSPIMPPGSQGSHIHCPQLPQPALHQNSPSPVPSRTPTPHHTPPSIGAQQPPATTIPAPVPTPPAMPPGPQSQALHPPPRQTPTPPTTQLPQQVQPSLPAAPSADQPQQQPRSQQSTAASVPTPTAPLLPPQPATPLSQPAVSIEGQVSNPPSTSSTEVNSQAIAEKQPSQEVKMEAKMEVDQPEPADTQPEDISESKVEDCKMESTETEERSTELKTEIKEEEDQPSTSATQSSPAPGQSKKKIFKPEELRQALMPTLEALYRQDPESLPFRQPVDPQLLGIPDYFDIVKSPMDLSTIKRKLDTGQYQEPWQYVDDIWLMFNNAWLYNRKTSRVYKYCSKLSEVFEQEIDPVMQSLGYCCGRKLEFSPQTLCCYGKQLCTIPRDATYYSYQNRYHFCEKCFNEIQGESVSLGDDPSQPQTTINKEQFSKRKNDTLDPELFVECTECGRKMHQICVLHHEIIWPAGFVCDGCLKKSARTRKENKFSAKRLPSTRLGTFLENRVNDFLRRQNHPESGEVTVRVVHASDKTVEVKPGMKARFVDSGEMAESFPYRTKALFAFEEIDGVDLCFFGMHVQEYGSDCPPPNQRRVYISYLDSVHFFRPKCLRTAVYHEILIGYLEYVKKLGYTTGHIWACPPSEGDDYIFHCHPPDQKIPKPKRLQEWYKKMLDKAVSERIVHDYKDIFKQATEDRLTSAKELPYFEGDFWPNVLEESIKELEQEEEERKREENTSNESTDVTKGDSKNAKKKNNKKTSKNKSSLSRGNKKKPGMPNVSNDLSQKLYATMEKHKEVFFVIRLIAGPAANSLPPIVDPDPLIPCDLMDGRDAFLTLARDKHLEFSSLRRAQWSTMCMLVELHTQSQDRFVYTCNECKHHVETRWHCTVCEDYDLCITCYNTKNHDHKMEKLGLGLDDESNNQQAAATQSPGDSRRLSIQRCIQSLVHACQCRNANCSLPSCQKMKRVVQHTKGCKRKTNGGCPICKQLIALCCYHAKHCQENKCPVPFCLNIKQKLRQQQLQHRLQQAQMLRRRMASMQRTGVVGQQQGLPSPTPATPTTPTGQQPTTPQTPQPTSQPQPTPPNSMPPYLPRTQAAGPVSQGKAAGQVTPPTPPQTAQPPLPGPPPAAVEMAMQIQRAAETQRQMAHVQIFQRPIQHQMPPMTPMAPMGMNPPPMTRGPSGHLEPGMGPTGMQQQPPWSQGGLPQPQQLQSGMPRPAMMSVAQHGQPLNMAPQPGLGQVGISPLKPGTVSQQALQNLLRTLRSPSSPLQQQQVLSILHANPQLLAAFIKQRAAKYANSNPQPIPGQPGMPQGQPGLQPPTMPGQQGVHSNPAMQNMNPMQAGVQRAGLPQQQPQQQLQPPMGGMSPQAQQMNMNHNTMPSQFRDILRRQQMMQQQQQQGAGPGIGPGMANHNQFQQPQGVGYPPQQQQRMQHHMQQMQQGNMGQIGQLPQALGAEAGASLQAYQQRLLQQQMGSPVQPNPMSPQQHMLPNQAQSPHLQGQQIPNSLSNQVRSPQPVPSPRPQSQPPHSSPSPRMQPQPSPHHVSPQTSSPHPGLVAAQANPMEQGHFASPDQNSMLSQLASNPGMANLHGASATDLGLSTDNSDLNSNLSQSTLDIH

CNC(=O)COc1cc2cc(Nc3nc(N4CCC(C(=O)N5CCN(CCC(=O)N6CCC(n7nc(N8CCCc9cc(-c%10cnn(C)c%10)c(C(F)F)cc98)c8c7CCN(C(=O)NC)C8)CC6)CC5)CC4)ncc3Cl)cc(OC)c2n(C)c1=O [TCIP3]
enrichment of BCL6 in p300 IP, log2(fold change) (p300): 4.0 | t1/2 of c-MYC mRNA decrease (c-MYC mRNA): 33 min
